These results are taken from ChEMBL document CHEMBL3351876 (Eur J Med Chem, 2014).

One assay has as its target Heme. Description: Binding affinity to heme assessed as inhibition of beta-haemozoin formation by UV-vis spectra analysis.
Details: not given
As a reminder, the IC50 is the midpoint of a concentration-inhibition curve. For the compound `O=C1/C(=C/C=C/c2ccccc2)NC(=S)N1CCNc1ccnc2cc(Cl)ccc12`, the half-maximal inhibitory concentration (IC50) was 13.9 µM.
As for `O=C1/C(=C/C=C/c2ccccc2)NC(=S)N1CCCCNc1ccnc2cc(Cl)ccc12`, the IC50 was found to be 28.4 µM.
The same measure, in the same setting: as for `O=C1/C(=C/C=C/c2ccccc2)NC(=S)N1CCCNc1ccnc2cc(Cl)ccc12`, the figure is 19.9 µM.

System in another assay: not listed separately
The assay can be described thus: Selectivity index, ratio of CC50 for human HeLa cells to IC50 for chloroquine-resistant ring stage Plasmodium falciparum W2.
Details: not given
Type of assay: functional.
As to `O=C1/C(=C/C=C/c2ccccc2)NC(=S)N1CCNc1ccnc2cc(Cl)ccc12`, the “Ratio IC50” value is on record as 1807.
The same measure, in the same setting: the value for `O=C1/C(=C/C=C/c2ccccc2)NC(=S)N1CCCCNc1ccnc2cc(Cl)ccc12` was over 1747.
For `O=C1/C(=C/C=C/c2ccccc2)NC(=S)N1CCCNc1ccnc2cc(Cl)ccc12`, the “Ratio IC50” value was 2139.

The next assay deals with Plasmodium falciparum. The assay can be described thus: Antimalarial activity against chloroquine-resistant ring stage Plasmodium falciparum W2 assessed as parasitemia after 48 hrs by flow cytometry. Type of assay: functional, organism-based. To be noted: W2, 48 h. For orientation: In flow cytometry, cells or beads pass a laser one at a time.
For `Cc1ccc(NC(=S)N[C@@H]2C(=O)N(c3ccc(C)cc3)[C@@H]2/C=C/c2ccccc2)cc1`, the IC50 was over 10 µM.
Same read-out and setting: as for `O=C1[C@H](NC(=S)Nc2ccnc3cc(Cl)ccc23)[C@H](/C=C/c2ccccc2)N1c1ccccc1`, the figure is over 10 µM.
Still for that read-out and setting: as for `O=C1/C(=C/C=C/c2ccccc2)NC(=S)N1c1ccc(F)cc1`, the figure is over 10 µM; as for `Cc1ccc(N2C(=O)[C@@H](NC(=S)NC3CCCCC3)[C@H]2/C=C/c2ccccc2)cc1`, over 10 µM; as for `Cc1ccc(N2C(=O)[C@@H](NC(=S)Nc3ccc(F)cc3)[C@H]2/C=C/c2ccccc2)cc1`, over 10 µM.
`O=C1[C@H](NC(=S)Nc2ccnc3cc(Cl)ccc23)[C@H](/C=C/c2ccccc2)N1C1CCCCC1`: the IC50 was found to be 6.13 µM.
Still for that read-out and setting: the value for `CC(C)CN1C(=O)/C(=C/C=C/c2ccccc2)NC1=S` was over 10 µM; that for `O=C1[C@H](NC(=S)Nc2ccnc3cc(Cl)ccc23)[C@H](/C=C/c2ccccc2)N1c1ccc(Cl)cc1` was 8.75 µM; that for `O=C1/C(=C/C=C/c2ccccc2)NC(=S)N1CCNc1ccnc2cc(Cl)ccc12` was 0.0398 µM.
On the same count and under the same terms, as for `CCCCNC(=S)N[C@@H]1C(=O)N(c2ccc(C)cc2)[C@@H]1/C=C/c1ccccc1`, the figure is over 10 µM; as for `O=C1[C@H](NC(=S)Nc2ccnc3cc(Cl)ccc23)[C@H](/C=C/c2ccccc2)N1c1ccc(F)cc1`, over 10 µM.
On the same count and under the same terms, the value for `Cc1ccc(N2C(=O)[C@@H](NC(=S)NCC(C)C)[C@H]2/C=C/c2ccccc2)cc1` was over 10 µM; that for `NCCN1C(=O)/C(=C/C=C/c2ccccc2)NC1=S` was over 10 µM; that for `O=C1/C(=C/C=C/c2ccccc2)NC(=S)N1CCCCCCNc1ccnc2cc(Cl)ccc12` was 0.387 µM.
`CCCCN1C(=O)/C(=C/C=C/c2ccccc2)NC1=S`: the IC50 was over 10 µM.
On the same count and under the same terms, the value for `Cc1ccc(N2C(=O)[C@H](NC(=S)Nc3ccnc4cc(Cl)ccc34)[C@@H]2/C=C/c2ccccc2)cc1` was over 10 µM.
Same read-out and setting: the value for `O=C1/C(=C/C=C/c2ccccc2)NC(=S)N1CCCCNc1ccnc2cc(Cl)ccc12` was 0.0572 µM; that for `O=C1[C@H](NC(=S)Nc2ccnc3cc(Cl)ccc23)[C@H](/C=C/c2ccccc2)N1c1ccc(Br)cc1` was 5.72 µM; that for `O=C1/C(=C/C=C/c2ccccc2)NC(=S)N1CCCNc1ccnc2cc(Cl)ccc12` was 0.0425 µM.
The same measure, in the same setting: as for `Cc1ccc(N2C(=O)/C(=C/C=C/c3ccccc3)NC2=S)cc1`, the figure is over 10 µM.
Regarding `O=C1/C(=C/C=C/c2ccccc2)NC(=S)N1C1CCCCC1`, the IC50 was over 10 µM.

For a further assay, the system named is HeLa. Description: Cytotoxicity against human HeLa cells after 24 hrs by trypan blue exclusion assay.
Details: not given
Format: cell-based.
For the compound `O=C1/C(=C/C=C/c2ccccc2)NC(=S)N1CCNc1ccnc2cc(Cl)ccc12`, inhibition was half-maximal at 72 µM (IC50).
The same measure, in the same setting: as for `O=C1/C(=C/C=C/c2ccccc2)NC(=S)N1CCCCNc1ccnc2cc(Cl)ccc12`, the figure is over 100 µM.
On the same count and under the same terms, the value for `O=C1/C(=C/C=C/c2ccccc2)NC(=S)N1CCCNc1ccnc2cc(Cl)ccc12` was 91 µM.
